From article PMC9963398, “Discovery of New Quinolone-Based Diarylamides as Potent B-RAF^V600E/C-RAF Kinase Inhibitors Endowed with Promising In Vitro Anticancer Activity” (International Journal of Molecular Sciences, 2023)
Like-named read-outs stand apart in the source and are kept apart here.

How the values were obtained:
[1] = target: T1, B-RAF^V600K (Homo sapiens, UniProt P15056, V600K); assay: HotSpot kinase assay (RBC), B-RAF^V600K; format: biochemical; settings: 10 µM ATP
T1 construct: purchased Reaction Biology Corporation (RBC), Kinase HotSpot service
T1 sequence (P15056 whole entry V600K): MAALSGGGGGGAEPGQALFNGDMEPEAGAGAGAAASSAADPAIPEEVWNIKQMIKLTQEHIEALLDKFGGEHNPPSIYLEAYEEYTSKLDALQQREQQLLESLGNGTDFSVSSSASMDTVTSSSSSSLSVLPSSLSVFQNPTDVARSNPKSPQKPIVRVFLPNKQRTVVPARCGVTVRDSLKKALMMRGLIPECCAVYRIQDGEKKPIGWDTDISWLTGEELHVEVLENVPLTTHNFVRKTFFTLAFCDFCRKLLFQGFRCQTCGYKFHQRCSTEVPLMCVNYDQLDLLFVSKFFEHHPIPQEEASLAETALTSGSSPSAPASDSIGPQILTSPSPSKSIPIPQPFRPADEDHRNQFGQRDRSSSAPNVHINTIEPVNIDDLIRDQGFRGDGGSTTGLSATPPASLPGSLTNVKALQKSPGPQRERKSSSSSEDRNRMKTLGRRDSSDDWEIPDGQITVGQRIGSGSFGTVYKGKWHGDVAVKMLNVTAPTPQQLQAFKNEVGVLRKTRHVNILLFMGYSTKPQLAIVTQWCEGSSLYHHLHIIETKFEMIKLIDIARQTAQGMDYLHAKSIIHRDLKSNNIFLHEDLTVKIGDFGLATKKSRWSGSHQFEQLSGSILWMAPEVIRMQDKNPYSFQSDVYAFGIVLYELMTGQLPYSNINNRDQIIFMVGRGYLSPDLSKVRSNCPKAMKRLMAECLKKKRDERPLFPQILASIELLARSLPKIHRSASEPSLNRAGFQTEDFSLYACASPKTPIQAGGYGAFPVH
Procedure: To gain insight into the inhibitory mode of this new array of quinolines, 18a was tested at 1 µM concentration of ATP to compare it with its IC50 at 10 µM (Table 2).

[2] = system: A549/ATCC; assay: NCI-60 five-dose SRB assay; format: cell-based; settings: Homo sapiens, NSCL cancer, five-dose test
Outline: (§1)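 NCI standard protocol; SRB read-out; full 60-line human cancer panel; run at NCI, Bethesda.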

[3] = system: ACHN; assay: NCI-60 five-dose SRB assay; format: cell-based; settings: Homo sapiens, Renal cancer, five-dose test
Outline: as §1

[4] = system: HL-60(TB); assay: NCI-60 five-dose SRB assay; format: cell-based; settings: Homo sapiens, Leukemia, five-dose test
Outline: as §1

[5] = system: HOP-62; assay: NCI-60 five-dose SRB assay; format: cell-based; settings: Homo sapiens; HOP-62, NSCL cancer, five-dose test
Outline: as §1

[6] = system: K-562; assay: NCI-60 five-dose SRB assay; format: cell-based; settings: Homo sapiens, K562; K-562, Leukemia, five-dose test
Outline: as §1

[7] = system: KM12; assay: NCI-60 five-dose SRB assay; format: cell-based; settings: Homo sapiens; KM12, Colon cancer, five-dose test
Outline: as §1

[8] = system: M14; assay: NCI-60 five-dose SRB assay; format: cell-based; settings: Homo sapiens; M14, Melanoma, five-dose test
Outline: as §1

[9] = system: NCI-H226; assay: NCI-60 five-dose SRB assay; format: cell-based; settings: Homo sapiens; NCI-H226, NSCL cancer, five-dose test
Outline: as §1

[10] = system: NCI/ADR-RES; assay: NCI-60 five-dose SRB assay; format: cell-based; settings: Homo sapiens, Ovarian cancer, five-dose test
Outline: as §1

[11] = system: OVCAR-4; assay: NCI-60 five-dose SRB assay; format: cell-based; settings: Homo sapiens; OVCAR-4, Ovarian cancer, five-dose test
Outline: as §1

[12] = system: RPMI-8226; assay: NCI-60 five-dose SRB assay; format: cell-based; settings: Homo sapiens; RPMI-8226, Leukemia, five-dose test
Outline: as §1

[13] = system: SF-268; assay: NCI-60 five-dose SRB assay; format: cell-based; settings: Homo sapiens; SF-268, CNS cancer, five-dose test
Outline: as §1

[14] = system: SK-OV-3; assay: NCI-60 five-dose SRB assay; format: cell-based; settings: Homo sapiens; SK-OV-3, Ovarian cancer, five-dose test
Outline: as §1

[15] = system: SN12C; assay: NCI-60 five-dose SRB assay; format: cell-based; settings: Homo sapiens, Renal cancer, five-dose test
Outline: as §1

[16] = system: SW-620; assay: NCI-60 five-dose SRB assay; format: cell-based; settings: Homo sapiens; SW-620, Colon cancer, five-dose test
Outline: as §1

[17] = system: T-47D; assay: NCI-60 five-dose SRB assay; format: cell-based; settings: Homo sapiens, T47D, Breast cancer, five-dose test
Outline: as §1

[18] = system: TK-10; assay: NCI-60 five-dose SRB assay; format: cell-based; settings: Homo sapiens; TK-10, Renal cancer, five-dose test
Outline: as §1

[19] = system: U251; assay: NCI-60 five-dose SRB assay; format: cell-based; settings: Homo sapiens, U-251; U251, CNS cancer, five-dose test
Outline: as §1

[20] = system: UACC-257; assay: NCI-60 five-dose SRB assay; format: cell-based; settings: Homo sapiens; UACC-257, Melanoma, five-dose test
Outline: as §1

[21] = system: UACC-62; assay: NCI-60 five-dose SRB assay; format: cell-based; settings: Homo sapiens; UACC-62, Melanoma, five-dose test
Outline: as §1

[22] = system: NCI-60 human cancer cell lines; assay: NCI-60 single dose (10 µM) testing; format: cell-based; settings: single dose 10 µM
Procedure: Encouraged by the promising results in the cell-free assay, the antiproliferative activity of all final compounds was evaluated by the National Cancer Institute (NCI) in a single dose of 10 µM over a library of 60 human cancer cell lines representing nine cancer types; leukemia, non-small cell lung (NSCL), colon, central nervous system (CNS), melanoma, ovarian, renal, prostate, and breast cancer.

[23] = system: NCI-60 human tumor cell lines; assay: NCI-60 five-dose testing, ranges over panel or subpanel; format: cell-based
Procedure: The anticancer screening of target compounds over a full panel of 60 human cancer cell lines was carried out using Sulforhodamine B (SRB) assay at the National Cancer Institute (NCI), Bethesda, Maryland, USA, employing the standard protocol.

[24] = system: RPMI-8226; set-up: method as in PMID 32745753; settings: RPMI-8226, Leukemia; cited from earlier work
[25] = system: COLO 205; set-up: method as in PMID 32745753; settings: COLO 205, Colon cancer; cited from earlier work
[26] = system: HT29; set-up: method as in PMID 32745753; settings: HT29, Colon cancer; cited from earlier work
[27] = system: SNB-19; set-up: method as in PMID 32745753; settings: SNB-19, CNS cancer; cited from earlier work
[28] = system: M14; set-up: method as in PMID 32745753; settings: M14, Melanoma; cited from earlier work
[29] = system: SK-MEL-2; set-up: method as in PMID 32745753; settings: SK-MEL-2, Melanoma; cited from earlier work
[30] = system: SK-MEL-28; set-up: method as in PMID 32745753; settings: SK-MEL-28, Melanoma; cited from earlier work
[31] = system: SK-MEL-5; set-up: method as in PMID 32745753; settings: SK-MEL-5, Melanoma; cited from earlier work
[32] = system: OVCAR-5; set-up: method as in PMID 32745753; settings: OVCAR-5, Ovarian cancer; cited from earlier work
[33] = system: CAKI-1; set-up: method as in PMID 32745753; settings: CAKI-1, Renal cancer; cited from earlier work
[34] = system: UO-31; set-up: method as in PMID 32745753; settings: UO-31, Renal cancer; cited from earlier work

## CN1CCCN(Cc2ccc(C(=O)Nc3cccc(Nc4ccc5c(O)cccc5n4)c3)cc2C(F)(F)F)CC1 [Compound 17b, N-(3-((5-hydroxyquinolin-2-yl)amino)phenyl)-4-((4-methyl-1,4-diazepan-1-yl)methyl)-3-(trifluoromethyl)benzamide]
[1]
  IC50: 61.6 ± 1 nM
[2]
  GI50: 3630 nM
[3]
  GI50: 1920 nM
[4]
  GI50: 2350 nM
[5]
  GI50: 2030 nM
[6]
  GI50: 2180 nM
[7]
  GI50: 1980 nM
[8]
  GI50: 1890 nM
[9]
  GI50: 16700 nM
[10]
  GI50: 6430 nM
[11]
  GI50: 3830 nM
[12]
  GI50: 2890 nM
[13]
  GI50: 2140 nM
[14]
  GI50: 11100 nM
[15]
  GI50: 1830 nM
[16]
  GI50: 1950 nM
[17]
  GI50: 3460 nM
[18]
  GI50: 2800 nM
[19]
  GI50: 2070 nM
[20]
  GI50: 1600 nM
[21]
  GI50: 1690 nM
[22]; MALME-3M, MDA-MB-435, SK-MEL-2, and UACC-62
  growth percent: less than -90
[22]; melanoma LOX IMVI, SK-MEL-28, and SK-MEL-5
  growth percent: −100
[22]; melanoma SK-MEL-29, SK-MEL-5, and UACC-62
  growth percent: under −90%
[23]; Homo sapiens, MOLT-4, all leukemia cell lines, except MOLT-4
  GI50: > 2000 nM
[23]; Homo sapiens, colon cancer cell lines, range over lines
  GI50: < 2000 nM
[23]; Homo sapiens, melanoma cell lines, range over lines
  GI50: 1600 to 1890 nM
[23]; melanoma cell lines, range over lines
  GI50: < 2000 nM

## CNC(=O)c1cc(Oc2ccc(NC(=O)Nc3ccc(Cl)c(C(F)(F)F)c3)cc2)ccn1 [Sorafenib]
[24]
  GI50: 1500 nM
[25]
  GI50: 2200 nM
[26]
  GI50: 2200 nM
[27]
  GI50: 3400 nM
[28]
  GI50: 2200 nM
[29]
  GI50: 1800 nM
[30]
  GI50: 2600 nM
[31]
  GI50: 1500 nM
[32]
  GI50: 2900 nM
[33]
  GI50: 2900 nM
[34]
  GI50: 2600 nM
